The text below walks through data of US12247032B2, “Substituted pyrazolo[1,5-a]pyrimidines as inhibitors of JAK kinases” (Genentech, Inc., priority 2019, dated 2025).

SMILES strings stand for the structures.

The target in assay [1] is T1, recombinant human JAK1 kinase domain protein (Residues 854-1154) (Homo sapiens, UniProt P23458).
T1 construct: human JAK1 kinase domain protein (Residues 854-1154); purchased Proteros Biostructures GmbH (Martinsried, Germany); host or cells: insect cells
Nature of the assay: JAK1 biochemical assay (microfluidic mobility shift, peptide phosphorylation). The conditions noted are these: 25 μM ATP, 1 nM total JAK1; Ki calculated from Ki app (tight-binding, competitive); read-out: Biochem JAK1 Ki. Summed up:
(§1)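 Insect-cell-expressed human JAK1 (1 nM, residues 854-1154) or JAK2 (0.2 nM, residues 812-1132) phosphorylating 1.5 μM 5-FAM peptide Y-1B with 25 μM ATP, pH 7.2 HEPES, 30 min at 22-23 °C; twelve concentrations up to 1000 nM in duplicate. Mobility-shift % conversion fitted to tight-binding quadratic for Ki^app.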

The target of assay [2] is T2, Recombinant human JAK2 kinase domain protein (Residues 812-1132) (Homo sapiens, UniProt O60674).
T2 construct: human JAK2 kinase domain protein (Residues 812-1132); made in house; host or cells: insect cells
Nature of the assay: JAK2 biochemical assay (microfluidic mobility shift, peptide phosphorylation). The following applies: 25 μM ATP, 0.2 nM total JAK2; Ki calculated from Ki app (tight-binding, competitive); read-out: Biochem JAK2 Ki. Summed up:
as §1

T1 sequence (P23458 854-1154): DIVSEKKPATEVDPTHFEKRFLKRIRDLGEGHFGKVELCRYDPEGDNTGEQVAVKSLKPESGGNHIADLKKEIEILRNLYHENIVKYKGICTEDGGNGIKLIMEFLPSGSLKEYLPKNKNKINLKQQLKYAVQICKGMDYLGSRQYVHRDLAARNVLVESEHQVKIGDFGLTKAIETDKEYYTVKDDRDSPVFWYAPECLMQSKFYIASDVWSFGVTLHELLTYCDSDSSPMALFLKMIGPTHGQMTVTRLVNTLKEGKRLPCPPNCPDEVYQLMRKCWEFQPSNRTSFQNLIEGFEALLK
T2 sequence (O60674 812-1132): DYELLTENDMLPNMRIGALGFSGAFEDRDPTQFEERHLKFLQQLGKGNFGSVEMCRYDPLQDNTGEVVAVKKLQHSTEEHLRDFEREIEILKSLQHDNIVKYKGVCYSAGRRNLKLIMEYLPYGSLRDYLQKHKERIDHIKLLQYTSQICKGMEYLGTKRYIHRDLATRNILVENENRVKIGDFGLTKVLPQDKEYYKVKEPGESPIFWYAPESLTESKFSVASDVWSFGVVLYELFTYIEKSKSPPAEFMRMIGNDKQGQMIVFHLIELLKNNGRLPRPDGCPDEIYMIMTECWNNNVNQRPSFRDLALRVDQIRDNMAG

In the case of `CSc1ccc(OC(F)F)c(-c2nn(Cc3nnn(C4CN(CCCN(C)C)C4)n3)cc2NC(=O)c2cnn3cccnc23)c1` [Example 58, N-[3-[2-(difluoromethoxy)-5-methylsulfanyl-phenyl]-1-[[2-[1-[3-(dimethylamino)propyl]azetidin-3-yl]tetrazol-5-yl]methyl]pyrazol-4-yl]pyrazolo[1,5-a]pyrimidine-3-carboxamide], the Ki in assay [1] was 0.41 nM; in assay [2], 0.38 nM.

In the case of `CN(C)CCN1CCC(n2nnc(Cn3cc(NC(=O)c4cnn5cccnc45)c(-c4cc(OC(F)F)ccc4OC(F)F)n3)n2)CC1` [Example 61, N-[3-[2,5-bis(difluoromethoxy)phenyl]-1-[[2-[1-[2-(dimethylamino)ethyl]-4-piperidyl]tetrazol-5-yl]methyl]pyrazol-4-yl]pyrazolo[1,5-a]pyrimidine-3-carboxamide], the Ki in assay [1] was 0.63 nM; in assay [2], 0.52 nM.

As to `CN(C)[C@H]1C[C@H](N2CC(n3nnc(Cn4cc(NC(=O)c5cnn6cccnc56)c(-c5cc(OC(F)F)ccc5OC(F)F)n4)n3)C2)C1` [Example 70, N-[3-[2,5-bis(difluoromethoxy)phenyl]-1-[[2-[1-[3-(dimethylamino)cyclobutyl]azetidin-3-yl]tetrazol-5-yl]methyl]pyrazol-4-yl]pyrazolo[1,5-a]pyrimidine-3-carboxamide], the Ki in assay [1] is 0.64 nM; in assay [2], 0.54 nM.

For the molecule `CN1CC(N2CC(n3nnc(Cn4cc(NC(=O)c5cnn6cccnc56)c(-c5cc(OC(F)F)ccc5OC(F)F)n4)n3)C2)C1` [Example 78, N-[3-[2,5-bis(difluoromethoxy)phenyl]-1-[[2-[1-(1-methylazetidin-3-yl)azetidin-3-yl]tetrazol-5-yl]methyl]pyrazol-4-yl]pyrazolo[1,5-a]pyrimidine-3-carboxamide; formic acid], the Ki in assay [1] is 0.44 nM; in assay [2], 0.41 nM.
